We go through twelve molecules from patent US20260001874A1 (priority 2022, published 2026).

Data set [1] has as its system myxomatosis-derived virus MYXV-T1-ANCHOR. As to the kind of experiment: organism not typed. The data set is classed as cell-based. The conditions noted are these: RK-13, read-out: EC50 in vitro MYXV.
Data set [2] is described as follows: in vitro. Particulars: rabbit.
Data set [3] in a line: in vitro. Particulars: human.
The test system of the next data set is Shiga toxin Stx-1. The data set is classed as cell-based, E. coli. Particulars: read-out: EC50 in vitro Stx1.
The next data set concerns Shiga toxin Stx-2. Format: cell-based, E. coli. The conditions noted are these: read-out: EC50 in vitro Stx2.
The conditions of data set [4]: mouse, in vivo.
Data set [5] is described as follows: Incubation with hepatic mouse microsomes, LC-MS-MS. Particulars: 5 μM, 45 minutes, 37° C.
Data set [6] in a line: Pharmacokinetics in Lipiodol/castor oil (formulation B) or DMSO/Lipiodol/castor oil (formulation C), oral or subcutaneous. The conditions noted are these: 33 mg/kg oral or subcutaneous, Lipiodol/castor oil 30%/70%.
Another data set relates to VacV-ANCHOR. Kind of data set: microbe, parasite or virus in culture. Format: cell-based, cowpox virus. Particulars: Orthopoxvirus vaccinia, HeLa, read-out: EC50 in vitro VACV.
The next data set has as its system RK13 cells. The conditions noted are these: rabbit.
A further data set relates to HeLa cells. The conditions noted are these: human.

The EC50 is the concentration needed to bring the measured effect to its halfway point. With `Cc1nc(-c2ccc(C3N(C)c4ccc(F)cc4C(=O)N3c3c(O)cccc3O)s2)cs1` (stereo not shown) [Compound 1, 3-(2,6-dihydroxyphenyl)-6-fluoro-1-methyl-2-(5-(2-methylthiazol-4-yl)thiophen-2-yl)-2,3-dihydroquinazolin-4(1H)-one], the concentration for a half-maximal effect (EC50) in [1] came out at 6 nM. The CC50 in the data set “in vitro [2]” was 18900 nM. Also, the CC50 in the data set “in vitro [3]” is 57700 nM. In addition, the EC50 in the data set on Shiga toxin Stx-1 was determined as 16 nM. Also, the concentration for a half-maximal effect (EC50) with Shiga toxin Stx-2 was found to be 17 nM. In addition, in data set [4] (female, BALB/c), the concentration in brain came to 1700 nM, the concentration in colon worked out at 800 nM, the concentration in kidneys worked out at 400 nM and the concentration in liver was found to be 600 nM. In addition, in data set [4] (female, BALB/c), the concentration in lungs was 500 nM, the concentration in plasma came out at 700 nM and the “concentration in small intestine” value came to 2100 nM. In [4] (female, BALB/c, sc, 33 mg/kg), the “concentration in brain (metabolite section)” value was 1500 nM, the “concentration in colon (metabolite section)” value is recorded as under 200 nM, the “concentration in kidney (metabolite section)” value came to 500 nM and the “concentration in liver (metabolite section)” value amounted to 1000 nM. In data set [4] (female, BALB/c, sc, 33 mg/kg), the “concentration in lungs (metabolite section)” value is on record as under 200 nM. Besides, the “metabolism by hepatic microsomes in the presence of NADPH” value in [5] was “slowed metabolism relative to the other compounds”. For the same molecule, in data set [6], the “pharmacokinetic properties (plasma exposure) compared with the other molecules tested” value is “best pharmacokinetic properties of all of the molecules tested”. In the data set with VacV-ANCHOR, the concentration giving a half-maximal response (EC50) amounted to 0.78 nM.
Take `Cc1nc(-c2ccc(C3N(C)c4ccc(F)cc4C(=O)N3c3ccccc3)s2)cs1` (stereo not shown) [Compound A]: the half-maximal effective concentration (EC50) is 74.5 nM in data set [1], 52 nM in the data set on Shiga toxin Stx-1, 60 nM in the data set with Shiga toxin Stx-2 and 37.8 nM in the data set on VacV-ANCHOR. Also, the figures for the CC50 in “in vitro [3]” and in the data set on RK13 cells were over 50000 nM and 3350 nM, respectively.
Regarding `Cc1nc(-c2ccc(C3N(C)c4ccc(F)cc4C(=O)N3c3ccccc3O)s2)cs1` (stereo not shown) [Compound B], the EC50 in [1] came out at 19 nM; with Shiga toxin Stx-1 it was 25 nM; in the data set with Shiga toxin Stx-2, 22 nM; in the data set on VacV-ANCHOR it was 3.6 nM. Also, the CC50 in the data set “in vitro [2]” is 14000 nM; in the data set “in vitro [3]”, 39900 nM.
On to `Cc1nc(-c2ccc(C3N(C)c4ccc(F)cc4C(=O)N3c3cccc(O)c3)s2)cs1` (stereo not shown) [Compound C], for which the concentration for a half-maximal effect (EC50) in data set [1] was 85.8 nM; in the data set with Shiga toxin Stx-1, 62 nM; in the data set on Shiga toxin Stx-2, 71 nM; in the data set with VacV-ANCHOR it was 32.2 nM. The CC50 in the data set “in vitro [2]” is 3510 nM; in the data set “in vitro [3]”, 29200 nM.
For the molecule `Cc1nc(-c2ccc(C3N(C)c4ccc(F)cc4C(=O)N3c3ccc(O)cc3)s2)cs1` (stereo not shown) [Compound D], the concentration giving a half-maximal response (EC50) in data set [1] is 5800 nM; in the data set on Shiga toxin Stx-1 it was 483 nM; in the data set on VacV-ANCHOR, 628 nM. In addition, the CC50 is 20400 nM with HeLa cells and 12900 nM in the data set with RK13 cells.
With `Cc1nc(-c2ccc(C3N(C)c4ccc(F)cc4C(=O)N3c3cccc(O)c3O)s2)cs1` (stereo not shown) [Compound E], the EC50 in data set [1] was determined as 11.5 nM; in the data set with Shiga toxin Stx-1, 32 nM; with Shiga toxin Stx-2 it was 35 nM; in the data set on VacV-ANCHOR, 4.8 nM. Moreover, the CC50 in “in vitro [2]” was 1300 nM; in the data set “in vitro [3]”, 8500 nM.
As to `Cc1nc(-c2ccc(C3N(C)c4ccc(F)cc4C(=O)N3c3ccc(O)cc3O)s2)cs1` (stereo not shown) [Compound F], the CC50 in “in vitro [3]” was 3600 nM. Besides, the values for the EC50 in the data set on Shiga toxin Stx-1 and with VacV-ANCHOR were 1500 nM and 27.3 nM, respectively.
Turning to `Cc1nc(-c2ccc(C3N(C)c4ccc(F)cc4C(=O)N3c3cc(O)ccc3O)s2)cs1` (stereo not shown) [Compound G], the concentration giving a half-maximal response (EC50) is 237 nM in [1], 642 nM with Shiga toxin Stx-1 and 19 nM with VacV-ANCHOR. Also, the CC50 in “in vitro [2]” is 12600 nM; in “in vitro [3]”, 36300 nM.
Take `Cc1nc(-c2ccc(C3N(C)c4ccc(F)cc4C(=O)N3c3ccc(O)c(O)c3)s2)cs1` (stereo not shown) [Compound H]: the concentration for a half-maximal effect (EC50) with Shiga toxin Stx-1 came out at 2500 nM.
Take `Cc1nc(-c2ccc(C3N(C)c4ccc(F)cc4C(=O)N3c3cc(O)cc(O)c3)s2)cs1` (stereo not shown) [Compound I]: the EC50 is 9750 nM in data set [1], over 30000 nM with Shiga toxin Stx-1 and 7300 nM in the data set with VacV-ANCHOR. Further, the CC50 in the data set “in vitro [2]” was 20100 nM; in the data set “in vitro [3]”, 25900 nM.
For the molecule `Cc1nc(-c2ccc(C3N(C)c4ccc(F)cc4C(=O)N3c3ccccc3N)s2)cs1` (stereo not shown) [Compound J], the concentration for a half-maximal effect (EC50) in data set [1] amounted to 1.44 nM; with Shiga toxin Stx-1, 21 nM; with Shiga toxin Stx-2, 27 nM; with VacV-ANCHOR it was 1 nM. Besides, the CC50 is over 50000 nM in “in vitro [3]” and 7460 nM in the data set on RK13 cells.
Regarding `CN1c2ccc(F)cc2C(=O)N(c2c(O)cccc2O)C1c1ccc(-c2csc(CO)n2)s1` (stereo not shown) [metabolite], the “presence in kidney, liver, colon, lungs and brain after treatment with compound 1” value in data set [4] (sc, 33 mg/kg) is listed as “identified in vivo”.
